Source: PMC12663261 (Nature Communications, 2025)

What was measured:
[1] = target: T1, hcis-PT (DHDDS / NgBR complex) (Homo sapiens, UniProt Q86SQ9+Q96E22); assay: HDX-MS, ligand-bound versus apo; assay type: binding; conditions: 6-molar excess ligand, 5 mM MgCl2, pD 7.5, 4 °C; active site
T1 sequence (Q86SQ9 1-333): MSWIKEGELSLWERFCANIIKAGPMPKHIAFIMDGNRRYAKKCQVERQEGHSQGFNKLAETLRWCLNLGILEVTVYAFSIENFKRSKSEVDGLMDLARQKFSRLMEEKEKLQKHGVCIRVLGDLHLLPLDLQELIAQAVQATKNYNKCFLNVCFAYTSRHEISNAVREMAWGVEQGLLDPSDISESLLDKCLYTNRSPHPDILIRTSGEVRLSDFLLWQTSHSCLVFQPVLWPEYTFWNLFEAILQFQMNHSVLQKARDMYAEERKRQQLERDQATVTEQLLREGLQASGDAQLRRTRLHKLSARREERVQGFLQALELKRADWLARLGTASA
T1 sequence (Q96E22 73-293): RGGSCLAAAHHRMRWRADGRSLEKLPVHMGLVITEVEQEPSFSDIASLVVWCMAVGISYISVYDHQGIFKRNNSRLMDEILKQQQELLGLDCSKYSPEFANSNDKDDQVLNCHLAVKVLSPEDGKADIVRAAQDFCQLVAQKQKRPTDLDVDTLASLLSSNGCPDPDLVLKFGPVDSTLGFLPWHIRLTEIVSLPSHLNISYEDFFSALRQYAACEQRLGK

[2] = target: T1, hcis-PT (DHDDS / NgBR complex); assay: fluorescence increase upon chain elongation; assay type: biochemical; conditions: 5 uM with 100 uM IPP, 0.2 uM enzyme, 0.5 mM MgCl2, pH 7.5

CC(C)=CCC/C(C)=C/CC/C(C)=C/CC/C(C)=C/COP(=O)(O)OP(=O)(O)O [GGPP]
HDX-MS, ligand-bound versus apo [1]: binding of either FPP or GGPP resulted in decreased HDX throughout the active site

CNc1ccccc1C(=O)OC/C(C)=C/CC/C(C)=C/COP(=O)(O)OP(=O)(O)O [MANT-O-GPP, (2E,6E)-8-O-(N-methyl-2-aminobenzoyl)-3,7-dimethyl-2,6-octandien-1-pyrophosphate]
fluorescence increase upon chain elongation (Ex 352 nm, Em 425 nm) [2]: MANT-O-GPP exhibits an increase in fluorescence upon chain elongation by hcis-PT

CC(C)=CCC/C(C)=C/CC/C(C)=C/COP(=O)(O)OP(=O)(O)O [FPP]
HDX-MS, ligand-bound versus apo [1]: binding of either FPP or GGPP resulted in decreased HDX throughout the active site
